The supplement of paper PMC8882468
± gives the standard deviation of the averaged measurements.

How the values were obtained:
Test in all cases: CTG-3D luminescence at 96 h relative to day-0 seeding control (ratio to day 0); higher = more growth / less cytotoxicity; PDxO 3D drug screen, 96 h, CTG-3D normalised to day-0 seeding control.
HCI-002 = test system: HCI-002 (organoid from a triple-negative breast cancer xenograft)
HCI-010 = test system: HCI-010 (organoid from a breast cancer xenograft)
HCI-011.E2 = test system: HCI-011.E2 (organoid from an ER-positive breast cancer xenograft)
HCI-017.E2 = test system: HCI-017.E2 (organoid from an ER-positive breast cancer xenograft)
HCI-025 = test system: HCI-025 (organoid from a breast cancer xenograft)

O=C(O)C1(C(=O)O)CCC1.[NH2-].[NH2-].[Pt+2] [carboplatin]
CTG-3D luminescence at 96 h
Settings | 12.5 pM | 0.00025 µM | 0.005 µM | 0.1 µM | 1 µM | 10 µM | 100 µM | 625 fM
HCI-002, days in culture: 62 | 3.04 | 2.34 | 2.63 | 2.61 | 2.45 | 2.29 | 0.71 | 2.9
HCI-002, days in culture: 82 | 2.75 | 3.03 | 1.99 | 2.54 | 2.26 | 1.82 | 0.726 | 2.68
HCI-002, days in culture: 91 | 4.49 | 3.72 | 3.53 | 3.87 | 3.9 | 3.69 | 0.992 | 4.08
HCI-002, days in culture: 191 | 2.54 | 2.62 | 2.4 | 2.78 | 2.89 | 1.86 | 0.967 | 2.4
HCI-002, days in culture: 209 | 2.4 | 2.34 | 2.11 | 2.07 | 2.18 | 1.69 | 0.74 | 2.38
HCI-002, days in culture: 227 | 5.92 | 5.72 | 5.38 | 6.29 | 5.74 | 5.68 | 1.18 | 6.2
HCI-010, days in culture: 52 | 1.92 | 2.23 | 2.25 | 2.47 | 2.55 | 0.598 | 0.0393 | 1.82
HCI-010, days in culture: 65 | 1.63 | 1.56 | 1.74 | 1.77 | 1.63 | 0.511 | 0.0408 | 1.74
HCI-010, days in culture: 103 | 3.69 | 3.41 | 3.55 | 3.27 | 3.23 | 0.639 | 0.13 | 3.07
HCI-011.E2, days in culture: 74 | 2.31 | 2.54 | 2.04 | 1.86 | 2.2 | 2.77 | 2.69 | 1.99
HCI-017.E2, days in culture: 85 | 2.99 | 2.47 | 2.94 | 2.35 | 2.71 | 2.18 | 2.37 | 2.62
HCI-025, days in culture: 172 | 2.56 | 1.71 | 3.2 | 1.24 | 2.75 | 1.11 | 0.15 | 1.35
HCI-025, days in culture: 209 | 1.97 | 1.73 | 1.67 | 1.49 | 1.79 | 0.85 | 0.119 | 1.86
HCI-025, days in culture: 218 | 1.73 | 1.73 | 1.72 | 2.01 | 1.43 | 1.14 | 0.203 | 1.73

CTG-3D luminescence at 96 h
Settings | 12.5 pM | 0.00025 µM | 0.005 µM | 0.1 µM | 1 µM | 10 µM | 100 µM | 625 fM
HCI-011.E2 | 1.65 ± 0.12 | 1.72 ± 0.4 | 1.54 ± 0.35 | 2.26 ± 0.84 | 1.71 ± 0.94 | 2.08 ± 0.84 | 1.71 ± 0.52 | 1.69 ± 0.26
HCI-017.E2 | 1.88 ± 0.13 | 2.076 ± 0.0078 | 2.32 ± 0.15 | 2.4 ± 0.19 | 2.25 ± 0.091 | 2.08 ± 0.058 | 1.9 ± 0.16 | 1.97 ± 0.042
